This is an account of results in US20200392239A1, “USE OF A MULTIMERIC ANTI-DR5 BINDING MOLECULE IN COMBINATION WITH A CHEMOTHERAPEUTIC AGENT FOR TREATING CANCER” (IGM Biosciences, Inc., priority 2018, published 2020).

For series [1] the following is noted: reason for not progressing in clinical development; cited from earlier work.
For series [2], the system named is HCT15 tumor cells. Kind of series: HCT15 tumor model in athymic nude mice (IgG resistant colon tumor model). In kind it is in vivo. Particulars: 3 mg/kg IgM 5 times daily i.v.; compared with 3 mg/kg anti-DR5 IgG and 80 mg/kg Irinotecan.
Method: Combination therapy with an anti-DR5 IgM antibody and standard of care Irinotecan was assessed in an HCT15 tumor model as follows.
In the first experiment, anti-DR5 IgG, anti-DR5 IgM, and Irinotecan monotherapies were compared. Athymic nude mice were subcutaneously implanted with 1×10^7 HCT15 tumor cells.
When the tumors reached 150-200 mm^3, the animals were dosed intravenously with either vehicle 5 times daily, 3 mg/kg of anti-DR5 IgM 5 times daily, 80 mg/kg of Irinotecan (Sigma I1406) 3 times within the first week, or the combined anti-DR5 IgM and Irinotecan dosing regimens.

In the case of `CC1(C)CCC(c2ccc(Cl)cc2)=C(CN2CCN(c3ccc(C(=O)NS(=O)(=O)c4ccc(N[C@H](CCN5CCOCC5)CSc5ccccc5)c(S(=O)(=O)C(F)(F)F)c4)cc3)CC2)C1` [ABT-263, 4-(4-{[2-(4-Chlorophenyl)-5,5-dimethyl-1-cyclohexen-1-yl]methyl}-1-piperazinyl)-N-[(4-{[(2R)-4-(4-morpholinyl)-1-(phenylsulfany)-2-butanyl]amino}-3-[(trifluoromethyl)sulfonyl]phenyl)sulfonyl]benzamide], the side effects result in series [1] is “dose-limiting side effects”.

With `CN(C)CC[C@H](CSc1ccccc1)Nc1ccc(S(=O)(=O)NC(=O)c2ccc(N3CCN(Cc4ccccc4-c4ccc(Cl)cc4)CC3)cc2)cc1[N+](=O)[O-]` [ABT-737, 4-{4-[(4′-Chloro-2-biphenylyl)methyl]-1-piperazinyl}-N-[(4-{[(2R)-4-(dimethylamino)-1-(phenylsulfanyl)-2-butanyl]amino}-3-nitrophenyl)sulfonyl]benzamide], in series [1], the bioavailability result is reported as “low” and the solubility result is reported as “low”.

B1: anti-DR5 IgM Mab #2: anti-DR5 IgM comprising VH and VL SEQ ID NO: 5 and SEQ ID NO: 6, constructed as in US 2018-0009897 (antibody, V domains shown)
VH: QVQLQESGPGLVKPSQTLSLTCTVSGGSISSGDYFWSWIRQLPGKGLECIGHIHNSGTTYYNPSLKSRVTISVDTSKKQFSLRLSSVTAADTAVYYCARDRGGDYYYGMDVWGQGTTVTVSS
VL: EIVLTQSPGTLSLSPGERATLSCRASQGISRSYLAWYQQKPGQAPSLLIYGASSRATGIPDRFSGSGSGTDFTLTISRLEPEDFAVYYCQQFGSSPWTFGQGTKVEIK
modifications: IgM constant regions
On to B1, for which the “efficacy of monotherapies (tumor volume, overall survival)” value in series [2] is given as “most effective”.
